Results reported in ChEMBL document CHEMBL4229523, “Monoterpene's multiple free radical scavenging capacity as compared with the radioprotective agent cysteamine and amifostine” (Bioorg Med Chem Lett, 2018).

Key:
Format in all cases: functional
[1] = Antioxidant activity assessed as trolox equivalent of tert-butyl peroxyl radical scavenging activity by CYPMPO spin trap-based ESR spectrometric method
[2] = Antioxidant activity assessed as trolox equivalent of alkoxyl radical scavenging activity by DMPO spin trap-based ESR spectrometric method
[3] = Antioxidant activity assessed as trolox equivalent of singlet oxygen scavenging activity by TMPD spin trap-based ESR spectrometric method
[4] = Antioxidant activity assessed as trolox equivalent of methyl radical scavenging activity by DMPO spin trap-based ESR spectrometric method
[5] = Antioxidant activity assessed as trolox equivalent of superoxide radical scavenging activity by CYPMPO spin trap-based ESR spectrometric method
[6] = Antioxidant activity assessed as trolox equivalent of hydroxyl radical scavenging activity by DMPO spin trap-based ESR spectrometric method
[7] = Antioxidant activity assessed as rate of methyl radical scavenging activity by DMPO spin trap-based ESR spectrometric method

SMILES: CC1CCC(C(C)C)C(O)C1 (configuration not stated)
- Activity [1]: 0.31 equiv
- Activity [2]: 0 equiv
- Activity [3]: 0.22 equiv
- Activity [4]: 0 equiv
- Activity [5]: 0.39 equiv
- Activity [6]: 0.49 equiv

SMILES: NCCCNCCSP(=O)(O)O
- Activity [1]: 0.058 equiv
- K [7]: 2.8 ×10⁶ /M/s
- Activity [2]: 0.054 equiv
- Activity [3]: 0.17 equiv
- Activity [4]: 0.2 equiv
- Activity [5]: 0.3 equiv
- Activity [6]: 0.76 equiv

SMILES: NCCS
- Activity [1]: 0.08 equiv
- K [7]: 2.5 ×10⁶ /M/s
- Activity [2]: 0.045 equiv
- Activity [3]: 1.1 equiv
- Activity [4]: 0.18 equiv
- Activity [5]: 0.13 equiv
- Activity [6]: 1.5 equiv

SMILES: Cc1ccc(C(C)C)c(O)c1
- Activity [1]: 0.22 equiv
- Activity [2]: 0.013 equiv
- Activity [3]: 0.16 equiv
- Activity [4]: 0 equiv
- Activity [5]: 0.24 equiv
- Activity [6]: 0.3 equiv

SMILES: C=CC(C)(O)CCC=C(C)C (configuration not stated)
- Activity [1]: 0 equiv
- Activity [2]: 0.045 equiv
- Activity [3]: 0.046 equiv
- Activity [4]: 0 equiv
- Activity [5]: 0.27 equiv
- Activity [6]: 0.38 equiv
